Data from patent US20240058460A1, “METHODS AND COMPOUNDS FOR MODULATING HUNTINGTON'S DISEASE” (Design Therapeutics, Inc., priority 2022, published 2024).

What was measured:
[1] = test system: human HTT T allele (SNP rs362331C/T) mRNA in GM09197 fibroblasts; experiment: HTT mRNA, allele-specific RT-PCR in GM09197 fibroblasts, T allele; assay type: cell-based; settings: for IC50: Homo sapiens, Fibroblast, 48 hr, T allele HTT mRNA normalized to GAPDH, relative to vehicle; for Gm09197 Emin 48 hr T Allele (%): lowest % HTT observed at 0.5 nM to 1000 nM compound
Description: (§1) Molecular Biology Toolkit: • qPCR primer probe sets: • RNA input normalization was assessed utilizing human glyceraldehyde 3-phosphate dehydrogenase (hGAPDH) TaqMan assay (ThermoFisher cat #4351370) or Human Cyclophillin ([…]) TaqMan assay (ThermoFisher cat #4351372) • Total HTT detection was assessed utilizing human Htt TaqMan assay (ThermoFisher cat #4331182) • Allele-specific detection of human HTT expression in HD cells containing the SNP rs362331C/T (Exon 50): for each assay, allele-specific probes to detect the SNP variant contained locked nucleic acid bases to improve allele discrimination, as compared to unmodified DNA probes. • 362331-F (331 forward primer) • 362331-R (331 reverse primer) • 362331-C probe: TCC CTC ATC+C+AC TGT GT • 362331-T probe: CTC+A+T+C+T+A+C TGT GT • qPCR was performed using Agpath ID one-step reverse transcriptase polymerase chain reaction (RT-PCR) reagent
(§2) Screening of HD molecules methods: GM09197 and/or GM04022 fibroblasts were cultured in T175 flasks incubated at 37° C. and 5% CO2. Once confluency was reached, the media was removed, the cells were washed with 1×PBS, and cells were dissociated using TrypLE™ Express Enzyme. Media was added to the enzyme and collected into a 15-mL conical tube and centrifuged at 500×g for 5 minutes to pellet the cells. Media and enzyme were aspirated using a serological pipette. Cells were resuspended in fresh media and counted using a Countess 3 Automated Cell Counter. Cells were plated at a density of 15,000 cells/well in a tissue culture-treated polystyrene 96-well dish and incubated at 37° C. and 5% CO2 overnight. The next day, media was removed using an 8-channel aspirator. 200 μL media/well are added back into the plate. The molecules are formulated to 1 mM and are dispensed using a Multidrop™ Pico 8 Digital Dispenser. After a 48-hour incubation with compounds, media was removed from plates, cells were washed with 1×PBS, and cells were lysed in 40 μL per well guanidinium thiocyanate buffer. RNA was isolated and purified in […] glass fiber column plates using chaotropic salts. Human mtHTT, wtHTT, and GAPDH mRNA were measured via RT-PCR using the ThermoFisher QuantStudio™ 7 Flex System in 384-well format. Results of HTT levels were normalized to GAPDH mRNA levels. Normalized HTT mRNA levels were expressed relative to vehicle-treated samples to assess fold change after molecule treatment.
(§3) Emin for each compound is the lowest % HTT concentration observed within a compound concentration of 0.5 nM to 1000 nM.

[2] = test system: human HTT C allele (SNP rs362331C/T) mRNA in GM09197 fibroblasts; experiment: HTT mRNA, allele-specific RT-PCR in GM09197 fibroblasts, C allele; assay type: cell-based; settings: for GM 09197 E min 48 Hr C Allele (%): lowest % HTT observed at 0.5 nM to 1000 nM compound; for IC50: Homo sapiens, Fibroblast, 48 hr, C allele HTT mRNA normalized to GAPDH, relative to vehicle
Description: as §1, §2, §3

| Compound | IC50 [1] | Gm09197 Emin 48 hr T Allele (%) [1] | GM 09197 E min 48 Hr C Allele (%) [2] | IC50 [2] |
| --- | --- | --- | --- | --- |
| CC(=O)N1c2ccc(-c3ccn(CCOCCOCCOCCOCCOCCOCCOCCOCCOCCOCCOCCOCCOCCOCCOCCNC(=O)CCNC(=O)c4nc(NC(=O)c5cc(NC(=O)CCNC(=O)c6nc(NC(=O)CCCNC(=O)c7cc(NC(=O)c8nc(NC(=O)CCNC(=O)c9cc(NC(=O)c%10nccn%10C)cn9C)cn8C)cn7C)cn6C)cn5C)cn4C)n3)cc2[C@H](Nc2ccc(C#N)cc2)C[C@@H]1C [Compound A-56] | 104 nM | C (C<80%) | C (C<80%) | > 1000 nM |
| Cn1cc(NC(=O)c2nc(NC(=O)CCNC(=O)c3cc(NC(=O)c4nccn4C)cn3C)cn2C)cc1C(=O)NCCCC(=O)Nc1cn(C)c(C(=O)NCCC(=O)Nc2cc(C(=O)Nc3cn(C)c(C(=O)NCCC(=O)NCCOCCOCCOCCOCCOCCOCCOCCOCCOCCOCCOCCOCCOCCOCCOCCN4C[C@H](Nc5cnn(C)c(=O)c5Br)C[C@H](c5ccccc5)C4)n3)n(C)c2)n1 [Compound A-49] | > 1000 nM | A (A>90%) | A (A>90%) | > 1000 nM |
| Cc1sc2c(c1C)C(c1ccc(Cl)cc1)=N[C@@H](CC(=O)Nc1ccc(OCCOCCOCCOCCOCCOCCOCCOCCOCCNC(=O)c3cc(NC(=O)c4nc(NC(=O)[C@H](N)CCNC(=O)c5cc(NC(=O)c6nc(NC(=O)CCNC(=O)c7cc(NC(=O)c8nccn8C)cn7C)cn6C)cn5C)cn4C)cn3C)cc1)c1nnc(C)n1-2 [Compound A-35] | > 1000 nM |  | A (A>90%) | > 1000 nM |
| CC(=O)N1c2ccc(-c3ccn(-c4ccc(OCCOCCOCCOCCOCCOCCOCCOCCOCCNC(=O)CCNC(=O)c5nc(NC(=O)c6cc(NC(=O)CCNC(=O)c7nc(NC(=O)CCCNC(=O)c8cc(NC(=O)c9nc(NC(=O)CCNC(=O)c%10cc(NC(=O)c%11nccn%11C)cn%10C)cn9C)cn8C)cn7C)cn6C)cn5C)cc4)n3)cc2[C@H](Nc2ccc(C#N)cc2)C[C@@H]1C [Compound A-59] | > 1000 nM |  |  | > 1000 nM |
| Cc1sc2c(c1C)C(c1ccc(Cl)cc1)=N[C@@H](CC(=O)Nc1ccc(OCCOCCOCCOCCOCCOCCOCCOCCOCCOCCOCCOCCOCCOCCOCCOCCNC(=O)c3cc(NC(=O)c4nc(NC(=O)c5cc(NC(=O)[C@@H](N)CCNC(=O)c6nc(NC(=O)CCNC(=O)c7cc(NC(=O)c8nccn8C)cn7C)cn6C)cn5C)cn4C)cn3C)cc1)c1nnc(C)n1-2 [Compound A-38] | > 1000 nM | A (A>90%) | A (A>90%) | > 1000 nM |
| CCS(=O)(=O)Nc1ccc(Oc2ccc(F)cc2F)c(-c2cn(C)c(=O)c3[nH]c(C(=O)Nc4ccc(OCCOCCOCCOCCOCCOCCOCCOCCOCCNC(=O)c5cc(NC(=O)c6nc(NC(=O)c7cc(NC(=O)[C@@H](N)CCNC(=O)c8nc(NC(=O)CCNC(=O)c9cc(NC(=O)c%10nccn%10C)cn9C)cn8C)cn7C)cn6C)cn5C)cc4)cc23)c1 [Compound A-39] | > 1000 nM |  |  | > 1000 nM |
| CC(=O)Nc1c(F)cc(C(=O)N[C@H]2CC[C@H](O)CC2)cc1O[C@@H](C)c1cccc(C(=O)NCCOCCOCCOCCOCCOCCOCCOCCOCCOCCOCCOCCOCCOCCOCCOCCNC(=O)CCNC(=O)c2nc(NC(=O)c3cc(NC(=O)CCNC(=O)c4nc(NC(=O)CCCNC(=O)c5cc(NC(=O)c6nc(NC(=O)CCNC(=O)c7cc(NC(=O)c8nccn8C)cn7C)cn6C)cn5C)cn4C)cn3C)cn2C)c1 [Compound A-32] | > 1000 nM |  |  | > 1000 nM |
| CC(=O)Nc1c(F)cc(C(=O)NC2CCC(O)CC2)cc1O[C@@H](C)c1cccc(OCCOCCOCCOCCOCCOCCOCCOCCOCCOCCOCCOCCOCCOCCOCCOCCNC(=O)CCNC(=O)c2nc(NC(=O)c3cc(NC(=O)CCNC(=O)c4nc(NC(=O)CCCNC(=O)c5cc(NC(=O)c6nc(NC(=O)CCNC(=O)c7cc(NC(=O)c8nccn8C)cn7C)cn6C)cn5C)cn4C)cn3C)cn2C)c1 (stereo partly shown) [Compound A-31] | > 1000 nM |  |  | > 1000 nM |
| Cc1noc(C)c1-c1ccc2c(c1)nc(CCc1ccc(OCCOCCOCCOCCOCCOCCOCCOCCOCCNC(=O)CCNC(=O)c3nc(NC(=O)c4cc(NC(=O)CCNC(=O)c5nc(NC(=O)CCCNC(=O)c6cc(NC(=O)c7nc(NC(=O)CCNC(=O)c8cc(NC(=O)c9nccn9C)cn8C)cn7C)cn6C)cn5C)cn4C)cn3C)c(Cl)c1)n2C[C@H](C)N1CCOCC1 [Compound A-53] | > 1000 nM |  | A (A>90%) | > 1000 nM |
| CCS(=O)(=O)Nc1ccc(Oc2ccc(F)cc2F)c(-c2cn(C)c(=O)c3[nH]c(C(=O)Nc4ccc(OCCOCCOCCOCCOCCOCCOCCOCCOCCOCCOCCOCCOCCOCCOCCOCCNC(=O)c5cc(NC(=O)c6nc(NC(=O)c7cc(NC(=O)[C@@H](N)CCNC(=O)c8nc(NC(=O)CCNC(=O)c9cc(NC(=O)c%10nccn%10C)cn9C)cn8C)cn7C)cn6C)cn5C)cc4)cc23)c1 [Compound A-40] | > 1000 nM | A (A>90%) | A (A>90%) | > 1000 nM |
| CCS(=O)(=O)Nc1ccc(Oc2ccc(F)cc2F)c(-c2cn(C)c(=O)c3[nH]c(C(=O)Nc4ccc(OCCOCCOCCOCCOCCOCCOCCOCCOCCOCCOCCOCCOCCOCCOCCOCCNC(=O)CCNC(=O)c5nc(NC(=O)c6cc(NC(=O)CCNC(=O)c7nc(NC(=O)OCCNC(=O)c8cc(NC(=O)c9nc(NC(=O)CCNC(=O)c%10cc(NC(=O)c%11nccn%11C)cn%10C)cn9C)cn8C)cn7C)cn6C)cn5C)cc4)cc23)c1 [Compound A-72] | > 1000 nM | A (A>90%) |  | > 1000 nM |
| CC(=O)N1c2ccc(-c3ccn(-c4ccc(OCCOCCOCCOCCOCCOCCOCCOCCOCCOCCOCCOCCOCCOCCOCCOCCNC(=O)CCNC(=O)c5nc(NC(=O)c6cc(NC(=O)CCNC(=O)c7nc(NC(=O)CCCNC(=O)c8cc(NC(=O)c9nc(NC(=O)CCNC(=O)c%10cc(NC(=O)c%11nccn%11C)cn%10C)cn9C)cn8C)cn7C)cn6C)cn5C)cc4)n3)cc2[C@H](Nc2ccc(C#N)cc2)C[C@@H]1C [Compound A-58] | > 1000 nM |  |  | > 1000 nM |
| CCS(=O)(=O)Nc1ccc(Oc2ccc(F)cc2F)c(-c2cn(C)c(=O)c3[nH]c(C(=O)Nc4ccc(OCCOCCOCCOCCOCCOCCOCCOCCOCCOCCOCCOCCOCCOCCOCCOCCNC(=O)CCNC(=O)c5nc(NC(=O)c6cc(NC(=O)CCNC(=O)c7nc(NC(=O)NCCNC(=O)c8cc(NC(=O)c9nc(NC(=O)CCNC(=O)c%10cc(NC(=O)c%11nccn%11C)cn%10C)cn9C)cn8C)cn7C)cn6C)cn5C)cc4)cc23)c1 [Compound A-74] | > 1000 nM | A (A>90%) |  | > 1000 nM |
| Cc1sc2c(c1C)C(c1ccc(Cl)cc1)=N[C@@H](CC(=O)Nc1ccc(OCCOCCOCCOCCOCCOCCOCCOCCOCCOCCOCCOCCOCCOCCOCCOCCNC(=O)CCNC(=O)c3nc(NC(=O)c4cc(NC(=O)CCNC(=O)c5nc(NC(=O)NCCNC(=O)c6cc(NC(=O)c7nc(NC(=O)CCNC(=O)c8cc(NC(=O)c9nccn9C)cn8C)cn7C)cn6C)cn5C)cn4C)cn3C)cc1)c1nnc(C)n1-2 [Compound A-75] | > 1000 nM | A (A>90%) | A (A>90%) | > 1000 nM |
| CCS(=O)(=O)Nc1ccc(Oc2ccc(F)cc2F)c(-c2cn(C)c(=O)c3[nH]c(C(=O)Nc4ccc(OCCOCCOCCOCCOCCOCCOCCOCCOCCNC(=O)c5cc(NC(=O)c6nc(NC(=O)[C@H](N)CCNC(=O)c7cc(NC(=O)c8nc(NC(=O)CCNC(=O)c9cc(NC(=O)c%10nccn%10C)cn9C)cn8C)cn7C)cn6C)cn5C)cc4)cc23)c1 [Compound A-21] | > 1000 nM | A (A>90%) | A (A>90%) | > 1000 nM |
